According to patent US20250172566A1, “SACCHARIDE SENSING SYSTEMS” (CARBOMETRICS LIMITED, priority 2022, published 2025):

Experiments:
[1] = Fluorescence lifetime glucose responsive assay (10 mM PBS, pH 7.4, 298 K); conditions: Ex 450 nm
[2] = Fluorescent solution phase glucose responsive assay (pH 7.4, 298 K)
Method in brief: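 Glucose binding molecule and fluorescent inhibitor molecule mixed in defined media at pH 7.4 and 298 K unless stated; baseline emission recorded, then D-glucose added stepwise to set final concentrations, e.g. 10 mM. After equilibration, percent change in emission at Emmax versus baseline recorded.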

[3] = Fluorescent hydrogel phase glucose responsive assay (10 mM PBS, pH 7.4, 310 K); conditions: 20 mM D-glucose, Ex 480/Emmax 520 nm
[4] = 5 mM glucose, GBM15 20 uM, FIM 5 uM
[5] = 20 mM glucose, GBM15 20 uM, FIM 5 uM
[6] = 40 mM glucose, GBM15 20 uM, FIM 5 uM
[7] = GBM30 100 uM, FIM 10 uM, hydrogel H (amino azide dextran/PEG)
[8] = 5 mM D-glucose, GBM15 50 uM, FIM 5 uM, Ex 470/Emmax 520 nm, medium B (10 mM PBS)
[9] = 10 mM D-glucose, GBM15 50 uM, FIM 5 uM, Ex 470/Emmax 520 nm, medium B (10 mM PBS)
[10] = 20 mM D-glucose, GBM15 50 uM, FIM 5 uM, Ex 470/Emmax 520 nm, medium B (10 mM PBS)

## CN1c2cc3c(cc2C(CS(=O)(=O)[O-])=CC1(C)C)C(c1ccc(C(=O)NCc2cn(CCOCCOCCOCCNC(=O)[C@H](Cc4cn(CCOCCOCCOCCOc5ccc(CCO[C@@H]6O[C@H](CO)[C@@H](O)[C@H](O)[C@H]6O)cc5)nn4)NC(=O)OC(C)(C)C)nn2)cc1C(=O)[O-])=c1cc2c(cc1O3)=[N+](C)C(C)(C)C=C2CS(=O)(=O)[O-].[Na+].[Na+] [FIM10]
[1]; 20 mM glucose, GBM40 5 uM, FIM 10 uM
  Fluorescence lifetime component τ1 for FIM and GBM at a particular glucose concentration: 580 ns
[1]; FIM 10 uM
  Lifetime component τ1 of FIM only: 575 ns
[1]; GBM40 5 uM, FIM 10 uM
  Lifetime component τ1 of FIM after GBM addition: 620 ns
[2]; 5 mM D-glucose, GBM42 20 uM, FIM 5 uM, Ex 560/Emmax 610 nm, medium B (10 mM PBS)
  Change in Emmax for FIM at a particular D-glucose concentration: 65%
[2]; 10 mM D-glucose, GBM42 20 uM, FIM 5 uM, Ex 560/Emmax 610 nm, medium B (10 mM PBS)
  Change in Emmax for FIM at a particular D-glucose concentration: 85%
[2]; 20 mM D-glucose, GBM42 20 uM, FIM 5 uM, Ex 560/Emmax 610 nm, medium B (10 mM PBS)
  Change in Emmax for FIM at a particular D-glucose concentration: 105%
[2]; 40 mM D-glucose, GBM40 5 uM, FIM 10 uM, Ex 560/Emmax 610 nm, medium B (10 mM PBS)
  Change in Emmax for FIM at a particular D-glucose concentration: −75%
[2]; 40 mM D-glucose, GBM42 20 uM, FIM 5 uM, Ex 560/Emmax 610 nm, medium B (10 mM PBS)
  Change in Emmax for FIM at a particular D-glucose concentration: 110%

## CC(C)(C)OC(=O)NC(Cc1cn(CCCCC(C(=O)NCC(COC2OC(CO)C(O)C(O)C2O)c2ccccc2)[N+](C)(C)C)nn1)C(=O)NCCOCCOCCn1cc(-c2ccnc(-c3cc(-c4cn(CCOCCOc5cc(S(=O)(=O)[O-])c6ccc7c(S(=O)(=O)[O-])cc(S(=O)(=O)[O-])c8ccc5c6c87)nn4)ccn3)c2)nn1.[Ru+2].c1ccc(-c2ccccn2)nc1.c1ccc(-c2ccccn2)nc1 (stereo not shown) [FIM56]
[1]; [4]
  Fluorescence lifetime component τ1 for FIM and GBM at a particular glucose concentration: 695 ns
  Fluorescence lifetime component τ2 for FIM and GBM at a particular glucose concentration: 3040 ns
[1]; [5]
  Fluorescence lifetime component τ1 for FIM and GBM at a particular glucose concentration: 660 ns
  Fluorescence lifetime component τ2 for FIM and GBM at a particular glucose concentration: 3210 ns
[1]; [6]
  Fluorescence lifetime component τ1 for FIM and GBM at a particular glucose concentration: 625 ns
  Fluorescence lifetime component τ2 for FIM and GBM at a particular glucose concentration: 3260 ns
[1]; FIM 5 uM
  Lifetime component τ1 of FIM only: 520 ns
  Lifetime component τ2 of FIM only: 3620 ns
[1]; GBM15 20 uM, FIM 5 uM
  Lifetime component τ1 of FIM after GBM addition: 650 ns
  Lifetime component τ2 of FIM after GBM addition: 2500 ns

## C[N+](C)(C)[C@@H](CCCCn1cc(C[C@H](NC(=O)OC[C@@H]2[C@@H]3CCC#CCC[C@@H]32)C(=O)NCCOCCOCCn2cc(CNC(=O)c3ccc4c(c3)C(=O)OC43c4ccc(N)c(S(=O)(=O)[O-])c4Oc4c3ccc(N)c4S(=O)(=O)O)nn2)nn1)C(=O)NCC(CO[C@@H]1O[C@H](CO)[C@@H](O)[C@H](O)[C@H]1O)c1ccccc1 (stereo partly shown) [FIM60]
[3]; GBM15 50 uM, FIM 50 uM, hydrogel G (amino dextran/PEG/PEG3-azide)
  Change in Emmax for FIM at a particular D-glucose concentration: 50%
[3]; [7]
  Change in Emmax for FIM at a particular D-glucose concentration: 40%
[2]; 5 mM D-glucose, GBM7 50 uM, FIM 5 uM, Ex 470/Emmax 520 nm, medium B (10 mM PBS)
  Change in Emmax for FIM at a particular D-glucose concentration: 220%
[2]; [8]
  Change in Emmax for FIM at a particular D-glucose concentration: 80%
[2]; 5 mM D-glucose, GBM30 50 uM, FIM 1 uM, Ex 470/Emmax 520 nm, medium B (10 mM PBS)
  Change in Emmax for FIM at a particular D-glucose concentration: 120%
[2]; 5 mM D-glucose, GBM40 20 uM, FIM 5 uM, Ex 470/Emmax 520 nm, medium B (10 mM PBS)
  Change in Emmax for FIM at a particular D-glucose concentration: 250%
[2]; 5 mM D-glucose, GBM40 20 uM, FIM 5 uM, Ex 470/Emmax 520 nm, medium C (human serum)
  Change in Emmax for FIM at a particular D-glucose concentration: 250%
[2]; 5 mM D-glucose, GBM43 40 uM, FIM 5 uM, Ex 450/Emmax 520 nm, medium B (10 mM PBS)
  Change in Emmax for FIM at a particular D-glucose concentration: 80%
[2]; [9]
  Change in Emmax for FIM at a particular D-glucose concentration: 130%
[2]; 10 mM D-glucose, GBM30 50 uM, FIM 1 uM, Ex 470/Emmax 520 nm, medium B (10 mM PBS)
  Change in Emmax for FIM at a particular D-glucose concentration: 170%
[2]; 10 mM D-glucose, GBM43 40 uM, FIM 5 uM, Ex 450/Emmax 520 nm, medium B (10 mM PBS)
  Change in Emmax for FIM at a particular D-glucose concentration: 125%
[2]; 20 mM D-glucose, GBM7 50 uM, FIM 5 uM, Ex 470/Emmax 520 nm, medium B (10 mM PBS)
  Change in Emmax for FIM at a particular D-glucose concentration: 310%
[2]; [10]
  Change in Emmax for FIM at a particular D-glucose concentration: 200%
[2]; 20 mM D-glucose, GBM30 50 uM, FIM 1 uM, Ex 470/Emmax 520 nm, medium B (10 mM PBS)
  Change in Emmax for FIM at a particular D-glucose concentration: 200%
[2]; 20 mM D-glucose, GBM40 20 uM, FIM 5 uM, Ex 470/Emmax 520 nm, medium B (10 mM PBS)
  Change in Emmax for FIM at a particular D-glucose concentration: 450%
[2]; 20 mM D-glucose, GBM40 20 uM, FIM 5 uM, Ex 470/Emmax 520 nm, medium C (human serum)
  Change in Emmax for FIM at a particular D-glucose concentration: 430%
[2]; 20 mM D-glucose, GBM43 40 uM, FIM 5 uM, Ex 450/Emmax 520 nm, medium B (10 mM PBS)
  Change in Emmax for FIM at a particular D-glucose concentration: 165%
[2]; 40 mM D-glucose, GBM7 50 uM, FIM 5 uM, Ex 470/Emmax 520 nm, medium B (10 mM PBS)
  Change in Emmax for FIM at a particular D-glucose concentration: 400%
[2]; 40 mM D-glucose, GBM15 50 uM, FIM 5 uM, Ex 470/Emmax 520 nm, medium B (10 mM PBS)
  Change in Emmax for FIM at a particular D-glucose concentration: 220%
[2]; 40 mM D-glucose, GBM30 50 uM, FIM 1 uM, Ex 470/Emmax 520 nm, medium B (10 mM PBS)
  Change in Emmax for FIM at a particular D-glucose concentration: 220%
[2]; 40 mM D-glucose, GBM43 40 uM, FIM 5 uM, Ex 450/Emmax 520 nm, medium B (10 mM PBS)
  Change in Emmax for FIM at a particular D-glucose concentration: 200%
[2]; 80 mM D-glucose, GBM40 20 uM, FIM 5 uM, Ex 470/Emmax 520 nm, medium B (10 mM PBS)
  Change in Emmax for FIM at a particular D-glucose concentration: 600%
[2]; 80 mM D-glucose, GBM40 20 uM, FIM 5 uM, Ex 470/Emmax 520 nm, medium C (human serum)
  Change in Emmax for FIM at a particular D-glucose concentration: 500%
[2]; 80 mM D-glucose, GBM43 40 uM, FIM 5 uM, Ex 450/Emmax 520 nm, medium B (10 mM PBS)
  Change in Emmax for FIM at a particular D-glucose concentration: 230%

## C#CCCC(=O)N[C@@H](CCCCNC(=O)Cn1cc(CNC(=O)c2ccc3c(c2)C(=O)OC32c3ccc(O)cc3Oc3cc(O)ccc32)nn1)C(=O)NCCOCCOCCOCCOCc1cn(CCO[C@@H]2O[C@H](CO)[C@@H](O)[C@H](O)[C@H]2O)nn1 [FIM66]
[3]; [7]
  Change in Emmax for FIM at a particular D-glucose concentration: 140%
[2]; [8]
  Change in Emmax for FIM at a particular D-glucose concentration: 250%
[2]; [9]
  Change in Emmax for FIM at a particular D-glucose concentration: 255%
[2]; [10]
  Change in Emmax for FIM at a particular D-glucose concentration: 260%
